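Compound exposure: 48 hours, 5 concentrations, 96-well plates. GI50 marks 50% less growth. The concentration for full growth arrest is given as TGI.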
Columns and labels:
Test in all cases: DTP human tumour cell line panel, 48 h
786-0 renal = system: 786-0 renal
A498 renal = system: A498 renal
A549 NSCLC = system: A549 NSCLC
ACHN renal = system: ACHN renal
BT-549 breast = system: BT-549 breast
CAKI-1 renal = system: CAKI-1 renal
CCRF-CEM leukemia = system: CCRF-CEM leukemia
COLO 205 colon = system: COLO 205 colon
DU-145 prostate = system: DU-145 prostate
EKVX NSCLC = system: EKVX NSCLC
HCC-2998 colon = system: HCC-2998 colon
HCT-116 colon = system: HCT-116 colon
HCT-15 colon = system: HCT-15 colon
HL-60(TB) leukemia = system: HL-60(TB) leukemia
HOP-62 NSCLC = system: HOP-62 NSCLC
HOP-92 NSCLC = system: HOP-92 NSCLC
HS 578T breast = system: HS 578T breast
HT29 colon = system: HT29 colon
IGROV1 ovarian = system: IGROV1 ovarian
K-562 leukemia = system: K-562 leukemia
KM12 colon = system: KM12 colon
LOX IMVI melanoma = system: LOX IMVI melanoma
M14 melanoma = system: M14 melanoma
MALME-3M melanoma = system: MALME-3M melanoma
MCF7 breast = system: MCF7 breast
MDA-MB-231 breast = system: MDA-MB-231 breast
MDA-MB-435 = system: MDA-MB-435
MOLT-4 leukemia = system: MOLT-4 leukemia
NCI-H226 lung = system: NCI-H226 lung
NCI-H460 lung = system: NCI-H460 lung
NCI-H522 lung = system: NCI-H522 lung
NCI/ADR-RES ovarian = system: NCI/ADR-RES ovarian
OVCAR-3 ovarian = system: OVCAR-3 ovarian
OVCAR-4 ovarian = system: OVCAR-4 ovarian
OVCAR-5 ovarian = system: OVCAR-5 ovarian
OVCAR-8 ovarian = system: OVCAR-8 ovarian
PC-3 prostate = system: PC-3 prostate
RPMI-8226 leukemia = system: RPMI-8226 leukemia
RXF 393 renal = system: RXF 393 renal
SF-268 CNS = system: SF-268 CNS
SF-295 CNS = system: SF-295 CNS
SF-539 CNS = system: SF-539 CNS
SK-MEL-2 melanoma = system: SK-MEL-2 melanoma
SK-MEL-28 melanoma = system: SK-MEL-28 melanoma
SK-MEL-5 melanoma = system: SK-MEL-5 melanoma
SK-OV-3 ovarian = system: SK-OV-3 ovarian
SN12C renal = system: SN12C renal
SNB-19 CNS = system: SNB-19 CNS
SR leukemia = system: SR leukemia
SW-620 colon = system: SW-620 colon
T-47D breast = system: T-47D breast
TK-10 renal = system: TK-10 renal
U251 CNS = system: U251 CNS
UACC-257 melanoma = system: UACC-257 melanoma
UACC-62 melanoma = system: UACC-62 melanoma
UO-31 renal = system: UO-31 renal

CC1(C)C(=O)/C(=C\c2cccnc2)C[C@]2(C)[C@H]3CC[C@@H]4[C@@H](C(=O)/C=C/c5ccncc5)CC[C@@]4(C)[C@]3(C)CC[C@@H]12
GI50 (786-0 renal): 1.85 µM
TGI (786-0 renal): 3.41 µM
GI50 (A498 renal): 1.89 µM
TGI (A498 renal): 3.7 µM
GI50 (A549 NSCLC): 2.62 µM
TGI (A549 NSCLC): 10.7 µM
GI50 (ACHN renal): 1.75 µM
TGI (ACHN renal): 3.36 µM
GI50 (BT-549 breast): 1.59 µM
TGI (BT-549 breast): 3.35 µM
GI50 (CAKI-1 renal): 2.51 µM
TGI (CAKI-1 renal): 6.46 µM
GI50 (CCRF-CEM leukemia): 1.79 µM
TGI (CCRF-CEM leukemia): 8.53 µM
GI50 (COLO 205 colon): 1.88 µM
TGI (COLO 205 colon): 3.87 µM
GI50 (DU-145 prostate): 1.68 µM
TGI (DU-145 prostate): 3.24 µM
GI50 (EKVX NSCLC): 2.82 µM
TGI (EKVX NSCLC): 9.2 µM
GI50 (HCC-2998 colon): 2.1 µM
TGI (HCC-2998 colon): 3.84 µM
GI50 (HCT-116 colon): 1.62 µM
TGI (HCT-116 colon): 3.16 µM
GI50 (HCT-15 colon): 1.71 µM
TGI (HCT-15 colon): 4.85 µM
GI50 (HL-60(TB) leukemia): 1.78 µM
TGI (HL-60(TB) leukemia): 6.35 µM
GI50 (HOP-62 NSCLC): 1.9 µM
TGI (HOP-62 NSCLC): 3.94 µM
GI50 (HOP-92 NSCLC): 1.48 µM
TGI (HOP-92 NSCLC): 3.39 µM
GI50 (HS 578T breast): 2.78 µM
TGI (HS 578T breast): 7.93 µM
GI50 (HT29 colon): 2.41 µM
TGI (HT29 colon): 8.64 µM
GI50 (IGROV1 ovarian): 2.03 µM
TGI (IGROV1 ovarian): 4.05 µM
GI50 (K-562 leukemia): 1.2 µM
TGI (K-562 leukemia): > 100 µM
GI50 (KM12 colon): 1.72 µM
TGI (KM12 colon): 3.56 µM
GI50 (LOX IMVI melanoma): 1.38 µM
TGI (LOX IMVI melanoma): 2.95 µM
GI50 (M14 melanoma): 1.89 µM
TGI (M14 melanoma): 4.93 µM
GI50 (MALME-3M melanoma): 1.78 µM
TGI (MALME-3M melanoma): 3.43 µM
GI50 (MCF7 breast): 0.804 µM
TGI (MCF7 breast): 4.62 µM
GI50 (MDA-MB-231 breast): 2.96 µM
TGI (MDA-MB-231 breast): 9.94 µM
GI50 (MDA-MB-435): 1.98 µM
TGI (MDA-MB-435): 4.77 µM
GI50 (MOLT-4 leukemia): 2.78 µM
TGI (MOLT-4 leukemia): 10.4 µM
GI50 (NCI-H226 lung): 2.34 µM
TGI (NCI-H226 lung): 5.78 µM
GI50 (NCI-H460 lung): 1.9 µM
TGI (NCI-H460 lung): 4 µM
GI50 (NCI-H522 lung): 1.66 µM
TGI (NCI-H522 lung): 4.6 µM
GI50 (NCI/ADR-RES ovarian): 2.28 µM
TGI (NCI/ADR-RES ovarian): 7.12 µM
GI50 (OVCAR-3 ovarian): 1.7 µM
TGI (OVCAR-3 ovarian): 3.36 µM
GI50 (OVCAR-4 ovarian): 2.55 µM
TGI (OVCAR-4 ovarian): 9.89 µM
GI50 (OVCAR-5 ovarian): 2.45 µM
TGI (OVCAR-5 ovarian): 5.36 µM
GI50 (OVCAR-8 ovarian): 2.34 µM
TGI (OVCAR-8 ovarian): 10.3 µM
GI50 (PC-3 prostate): 1.65 µM
TGI (PC-3 prostate): 4.55 µM
GI50 (RPMI-8226 leukemia): 1.21 µM
TGI (RPMI-8226 leukemia): 5.43 µM
GI50 (RXF 393 renal): 1.72 µM
TGI (RXF 393 renal): 3.18 µM
GI50 (SF-268 CNS): 2.41 µM
TGI (SF-268 CNS): 6.53 µM
GI50 (SF-295 CNS): 1.95 µM
TGI (SF-295 CNS): 4.31 µM
GI50 (SF-539 CNS): 1.76 µM
TGI (SF-539 CNS): 3.25 µM
GI50 (SK-MEL-2 melanoma): 1.93 µM
TGI (SK-MEL-2 melanoma): 4.38 µM
GI50 (SK-MEL-28 melanoma): 1.98 µM
TGI (SK-MEL-28 melanoma): 3.97 µM
GI50 (SK-MEL-5 melanoma): 1.67 µM
TGI (SK-MEL-5 melanoma): 3.05 µM
GI50 (SK-OV-3 ovarian): 4.86 µM
TGI (SK-OV-3 ovarian): 18.9 µM
GI50 (SN12C renal): 2.47 µM
TGI (SN12C renal): 7.85 µM
GI50 (SNB-19 CNS): 1.66 µM
TGI (SNB-19 CNS): 3.22 µM
GI50 (SR leukemia): 1.68 µM
TGI (SR leukemia): 9.81 µM
GI50 (SW-620 colon): 1.81 µM
TGI (SW-620 colon): 4.59 µM
GI50 (T-47D breast): 1.6 µM
TGI (T-47D breast): 9.54 µM
GI50 (TK-10 renal): 2.7 µM
TGI (TK-10 renal): 5.29 µM
GI50 (U251 CNS): 1.62 µM
TGI (U251 CNS): 3.03 µM
GI50 (UACC-257 melanoma): 1.8 µM
TGI (UACC-257 melanoma): 4.44 µM
GI50 (UACC-62 melanoma): 1.61 µM
TGI (UACC-62 melanoma): 3.46 µM
GI50 (UO-31 renal): 1.67 µM
TGI (UO-31 renal): 3.04 µM
